Test results: patent US20100041672A1, “USE OF QUINOLINE DERIVATIVES IN THE TREATMENT OF PAIN AND IRRITABLE BOWEL SYNDROME” (GLAXO GROUP LIMITED, priority 2007, published 2010)

Key:
[1] = test system: rats; test: FCA induced hypersensitivity rat model (intraplantar FCA, weight bearing); format: in vivo; details: 1 hour post dose; for weight bearing % reversal: 24 hrs after FCA; for effect on FCA induced hypersensitivity: p.o., intraplantar FCA
Method: (§1) Naïve weight bearing readings were taken. The hypersensitivity to pain was measured using the Rat incapacitance tester (Linton instruments). All rats (180-220 g) received an intraplantar injection of 100 ul of FCA (Freund's complete adjuvant) into the left hind paw. The FCA was sonicated for 15 minutes prior to use. 24 hrs after administration of the FCA, pre-dose weight bearing readings were taken. All animals were then ranked and randomised for dosing according to their FCA window (predose difference in grams—naïve difference in grams). Rats with FCA window less than 30 were excluded from the study.
Animals were then dosed orally with either vehicle, SB42457 (0.01, 0.1, 1 and 10 mg/kg p.o.) or celecoxib (10 mg/kg p.o.) as appropriate according to ranking and randomisation. Animals were assessed in the weight bearing apparatus 1 hour post dose.
The study was blind and randomised by FCA window using the Latin square method. % reversals were calculated by using the naïve, pre-dose and post dose values as follows: % Reversal=[(Pre-dose−Post-dose)/(Pre-dose−Naïve)]×100.
Graphs were plotted using Prism3. Statistical analysis was carried out using ANOVA and Fischer LSD test from statistical package Statistica 6.
In this study a positive control was also tested (celecoxib).
as §1, with “(200-220” for “(180-220”
Animals were then dosed orally with vehicle, SB-792988-A (0.01, 0.1, 1 and 10 mg/kg p.o.), SB-399885-A (10 mg/kg p.o.) or celecoxib (10 mg/kg p.o.) as appropriate according to ranking and randomisation. Animals were assessed in the weight bearing apparatus 1 hour post dose.
Graphs and were plotted using Prism3. Statistical analysis was carried out using ANOVA and Fischer LSD test from statistical package Statistica 6.

[2] = test system: Random Hooded rats; test: rat joint pain model of chronic inflammatory pain (intra-articular FCA, hind paw weight bearing); format: in vivo; details: for Statistics for hypersensitivity data (weight bearing), significance vs vehicle, Day 17: Day 17 post FCA; for Statistics for hypersensitivity data (weight bearing), significance vs vehicle, Day 15: Day 15 post FCA; for Statistics for hypersensitivity data (weight bearing), significance vs vehicle, Day 14: Day 14 post FCA; for effect on hypersensitivity in the joint pain model of chronic inflammatory pain: once daily oral dosing days 13-17 post intra-articular FCA; for Statistics for hypersensitivity data (weight bearing), significance vs vehicle, Day 13: Day 13 post FCA; for Statistics for hypersensitivity data (weight bearing), significance vs vehicle, Day 16: Day 16 post FCA
Method: Random Hooded rats, 150-180 g, obtained from Charles River UK, were anaesthetised under gaseous anaesthetic and the area surrounding the left and right knee joint shaved and cleaned as for aseptic surgery. Animals were injected with 150 μl of FCA into the left knee joint (intra-articular injection). Animals were immediately allowed to recover from anaesthetic in a warmed/oxygenated environment until being returned to their home cage on paper bedding. No further post-op care was provided.
(§2) Rats were tested prior to surgery and from 18 h post FCA (minimum of once weekly) for weight bearing (g) and joint diameter (mm). Weight bearing is measured by the animal's ability to place body weight across both hind paws on a Dual Channel Weight Averager which was calibrated each day prior to use using a 10 g weight (Rat capacitance tester—Linton Instruments). Hind paw weight bearing data was calculated and expressed as the percentage of the contralateral paw.
All data were expressed as mean±s.e.m.
(§3) Prior to FCA intra-articular injection into the left knee, rats display even weight bearing. By day 1 post-insult weight bearing had shifted such that the majority of the body weight was transmitted through the contralateral limb. By day 10 this effect was maintained and at this point animals were randomised across treatment groups. Once daily dosing with vehicle, SB742457 or celecoxib began on day 13 and continued up to and including day 17.
as §2, with “100” for “10”
as §3, with “SB792988A” for “SB742457”, “17. […] AUC was calculated using Microsoft Excel.” for “17.”

[3] = 1 mg/kg oral once daily from day 13
[4] = 10 mg/kg oral once daily from day 13
[5] = 0.1 mg/kg oral once daily from day 13, SB792988A study
[6] = 1 mg/kg oral once daily from day 13, SB792988A study
[7] = 3 mg/kg oral once daily from day 13, SB792988A study
[8] = 10 mg/kg oral once daily from day 13, SB792988A study

Question: Which “weight bearing % reversal” value ([1]; 0.01 mg/kg p.o., Table 5) does the source give for O=S(=O)(c1ccccc1)c1cnc2c(N3CCNCC3)cccc2c1 [SB742457, 3-Phenylsulfonyl-8-piperazin-1-yl-quinoline] here?
Answer: 27.68 ± 6.39%

Question: And the “weight bearing % reversal” value ([1]; 0.1 mg/kg p.o., Table 5)?
Answer: 53.09 ± 5.68%

Question: What about the “weight bearing % reversal” value ([1]; 1 mg/kg p.o., Table 5) of the same compound?
Answer: 60.17 ± 6.73%

Question: What about the “weight bearing % reversal” value ([1]; 10 mg/kg p.o., Table 5) of the same compound?
Answer: 76.97 ± 7.17%

Question: And the “effect on FCA induced hypersensitivity” value [1]?
Answer: dose-dependent reversal

Question: And the “Statistics for hypersensitivity data (weight bearing), significance vs vehicle, Day 17” value (from here on “Statistics … significance vs vehicle, Day 17”) ([2]; 0.1 mg/kg oral once daily from day 13)?
Answer: ** (** = p < 0.01)

Question: And the “Statistics for hypersensitivity data, significance vs vehicle, AUC” value ([2]; 1 mg/kg oral once daily days 13-17)?
Answer: *** (*** = p < 0.001)

Question: And the “Statistics for hypersensitivity data (weight bearing), significance vs vehicle, Day 15” value (“Statistics … significance vs vehicle, Day 15” for short) [2, 3]?
Answer: *** (*** = p < 0.001)

Question: And the “Statistics … significance vs vehicle, Day 17” value [2, 3]?
Answer: *** (*** = p < 0.001)

Question: And the “Statistics for hypersensitivity data, significance vs vehicle, AUC” value ([2]; 10 mg/kg oral once daily days 13-17)?
Answer: *** (*** = p < 0.001)

Question: What about the “Statistics for hypersensitivity data (weight bearing), significance vs vehicle, Day 14” value (from here on “Statistics … significance vs vehicle, Day 14”) [2, 4] of the same compound?
Answer: ** (** = p < 0.01)

Question: And the “Statistics … significance vs vehicle, Day 15” value [2, 4]?
Answer: *** (*** = p < 0.001)

Question: What about the “Statistics … significance vs vehicle, Day 17” value [2, 4] of the same compound?
Answer: *** (*** = p < 0.001)

Question: And the separation from vehicle ([2]; all doses above and including 0.1 mg/kg)?
Answer: significant separation from vehicle on at least one day

Question: And the “effect compared with the positive control, celecoxib” value ([2]; highest dose of 10 mg/kg vs 30 mg/kg celecoxib)?
Answer: not statistically different

Question: What about the “effect on hypersensitivity in the joint pain model of chronic inflammatory pain” value [2] of the same compound?
Answer: reversed hypersensitivity

Question: Which “weight bearing % reversal” value ([1]; 0.01 mg/kg p.o., Table 7) does the source give for Cl.O=S(=O)(c1cccc(F)c1)c1cnc2c(N3CCNCC3)cccc2c1 [SB792988A, 3-[(3-Fluorophenyl)sulfonyl]-8-(1-piperazinyl)quinoline Hydrochloride] here?
Answer: 22.91 ± 4.13%

Question: What about the “weight bearing % reversal” value ([1]; 0.1 mg/kg p.o., Table 7) of the same compound?
Answer: 22.11 ± 5.18%

Question: And the “weight bearing % reversal” value ([1]; 1 mg/kg p.o., Table 7)?
Answer: 38.76 ± 5.88%

Question: What about the “weight bearing % reversal” value ([1]; 10 mg/kg p.o., Table 7) of the same compound?
Answer: 67.00 ± 5.08%

Question: And the “effect on FCA induced hypersensitivity” value [1]?
Answer: dose-dependent reversal

Question: And the “Statistics for hypersensitivity data (weight bearing), significance vs vehicle, Day 13” value [2, 5]?
Answer: * (* = p < 0.05)

Question: What about the “Statistics … significance vs vehicle, Day 17” value [2, 5] of the same compound?
Answer: * (* = p < 0.05)

Question: And the “Statistics … significance vs vehicle, Day 14” value [2, 6]?
Answer: * (* = p < 0.05)

Question: And the “Statistics … significance vs vehicle, Day 17” value [2, 6]?
Answer: * (* = p < 0.05)

Question: What about the “Statistics for hypersensitivity data (weight bearing), significance vs vehicle, Day 13” value [2, 7] of the same compound?
Answer: ** (** = p < 0.01)

Question: What about the “Statistics … significance vs vehicle, Day 15” value [2, 7] of the same compound?
Answer: *** (*** = p < 0.001)

Question: What about the “Statistics for hypersensitivity data (weight bearing), significance vs vehicle, Day 16” value [2, 7] of the same compound?
Answer: * (* = p < 0.05)

Question: What about the “Statistics … significance vs vehicle, Day 17” value [2, 7] of the same compound?
Answer: *** (*** = p < 0.001)

Question: What about the “Statistics … significance vs vehicle, Day 14” value [2, 8] of the same compound?
Answer: *** (*** = p < 0.001)

Question: And the “Statistics … significance vs vehicle, Day 15” value [2, 8]?
Answer: *** (*** = p < 0.001)

Question: What about the “Statistics for hypersensitivity data (weight bearing), significance vs vehicle, Day 16” value [2, 8] of the same compound?
Answer: *** (*** = p < 0.001)

Question: What about the “Statistics … significance vs vehicle, Day 17” value [2, 8] of the same compound?
Answer: *** (*** = p < 0.001)

Question: What about the separation from vehicle ([2]; all doses (0.1, 1, 3, 10 mg/kg)) of the same compound?
Answer: significant separation from vehicle on various days

Question: And the “effect compared with the positive control, celecoxib” value ([2]; highest doses of 3 and 10 mg/kg vs 30 mg/kg celecoxib)?
Answer: not statistically different

Question: What about the “effect on hypersensitivity in the joint pain model of chronic inflammatory pain” value [2] of the same compound?
Answer: reversed hypersensitivity
